Patent publication US12528826B2, “[1,4]oxazepino[2,3-c]quinolinone derivatives as BCL6 inhibitors” (Cancer Research Technology Limited, priority 2019, dated 2026)

Target: T1, Trx-6×His-BCL6 (human BCL6 BTB domain covering amino-acid sequence 5-129) (Homo sapiens, UniProt P41182)
T1 construct: made in house
Assay: HTRF assay (BCL6 / BCOR peptide)
Format: binding
Conditions: 1 nM Trx-6×His-BCL6, 300 nM BCOR-AF633 peptide, 2 hours incubation at room temperature; for IC50: read-out: HTRF avg pIC50 (converted)
Procedure: After 2 hours incubation at room temperature the plate was read on a Pherastar FSX (BMG Labtech) plate reader equipped with 337 nm laser excitation filter, a first emission filter at 620 nm and a second emission filter at 665 nm. The % inhibition at each concentration was calculated by normalising FRET ratio to the appropriate high (DMSO with all reagents) and low (DMSO without BCL6) controls.

Row | IC50 [nM] | Molecule | HTRF avg pIC50
1 | 10.7 | CN(C)c1ncc(Cl)c(Nc2ccc3c(c2)c2c(c(=O)n3C)OCC(F)(F)[C@H](C3CC3)N2)n1 [Example 8a, (S)-10-((5-chloro-2-(dimethylamino)pyrimidin-4-yl)amino)-2-cyclopropyl-3,3-difluoro-7-methyl-1,2,3,4-tetrahydro-[1,4]oxazepino[2,3-c]quinolin-6(7H)-one] | –
2 | 13.2 | Cn1c(=O)c2c(c3cc(Nc4nc(N5CCCC(C)(F)C5)ncc4Cl)ccc31)N[C@@H](C1CC1)C(F)(F)CO2 (mixture of isomers) [Example 11z, (S)-10-((5-chloro-2-((R)-3-fluoro-3-methylpiperidin-1-yl)pyrimidin-4-yl)amino)-2-cyclopropyl-3,3-difluoro-7-methyl-1,2,3,4-tetrahydro-[1,4]oxazepino[2,3-c]quinolin-6(7H)-one:(S)-10-((5-chloro-2-((S)-3-fluoro-3-methylpiperidin-1-yl)pyrimidin-4-yl)amino)-2-cyclopropyl-3,3-difluoro-7-methyl-1,2,3,4-tetrahydro-[1,4]oxazepino[2,3-c]quinolin-6(7H)-one (1:1)] | –
3 | 4.9 | CC(=O)N(C)[C@H]1CN(c2ncc(Cl)c(Nc3ccc4c(c3)c3c(c(=O)n4C)OCC(F)(F)[C@H](C4CC4)N3)n2)CCC1(F)F [Example 9n, N-((S)-1-(5-chloro-4-(((S)-2-cyclopropyl-3,3-difluoro-7-methyl-6-oxo-1,2,3,4,6,7-hexahydro-[1,4]oxazepino[2,3-c]quinolin-10-yl)amino)pyrimidin-2-yl)-4,4-difluoropiperidin-3-yl)-N-methylacetamide] | –
4 | 2.88 | Cn1c(=O)c2c(c3cc(Nc4nc(N5CCC[C@@H](CO)C5)ncc4Cl)ccc31)N[C@@H](C1CC1)C(F)(F)CO2 [Example 9p, (S)-10-((5-chloro-2-((R)-3-(hydroxymethyl)piperidin-1-yl)pyrimidin-4-yl)amino)-2-cyclopropyl-3,3-difluoro-7-methyl-1,2,3,4-tetrahydro-[1,4]oxazepino[2,3-c]quinolin-6(7H)-one] | –
5 | 44.7 | Cn1c(=O)c2c(c3cc(Nc4nc(N5CCCC6(CC6)C5)ncc4Cl)ccc31)N[C@@H](C1CC1)C(F)(F)CO2 [Example 11l, (S)-10-((5-chloro-2-(5-azaspiro[2.5]octan-5-yl)pyrimidin-4-yl)amino)-2-cyclopropyl-3,3-difluoro-7-methyl-1,2,3,4-tetrahydro-[1,4]oxazepino[2,3-c]quinolin-6(7H)-one] | –
6 | 4.17 | CCNC(=O)C1CN(c2ncc(Cl)c(Nc3ccc4c(c3)c3c(c(=O)n4C)OCC(F)(F)[C@H](C4CC4)N3)n2)CCC1(F)F (mixture of isomers) [Example 9j, (R)-1-(5-chloro-4-(((S)-2-cyclopropyl-3,3-difluoro-7-methyl-6-oxo-1,2,3,4,6,7-hexahydro-[1,4]oxazepino[2,3-c]quinolin-10-yl)amino)pyrimidin-2-yl)-N-ethyl-4,4-difluoropiperidine-3-carboxamide; (S)-1-(5-chloro-4-(((S)-2-cyclopropyl-3,3-difluoro-7-methyl-6-oxo-1,2,3,4,6,7-hexahydro-[1,4]oxazepino[2,3-c]quinolin-10-yl)amino)pyrimidin-2-yl)-N-ethyl-4,4-difluoropiperidine-3-carboxamide] | –
7 | 7.59 | CC1CN(c2ncc(Cl)c(Nc3ccc4c(c3)c3c(c(=O)n4C)OCC(F)(F)[C@H](C4CC4)N3)n2)C1 [Example 11o, (S)-10-((5-chloro-2-(3-methylazetidin-1-yl)pyrimidin-4-yl)amino)-2-cyclopropyl-3,3-difluoro-7-methyl-1,2,3,4-tetrahydro-[1,4]oxazepino[2,3-c]quinolin-6(7H)-one] | –
8 | 4.17 | CN(CC(C)(C)O)c1ncc(Cl)c(Nc2ccc3c(c2)c2c(c(=O)n3C)OCC(F)(F)[C@H](C3CC3)N2)n1 [Example 9u, (S)-10-((5-chloro-2-((2-hydroxy-2-methylpropyl)(methyl)amino)pyrimidin-4-yl)amino)-2-cyclopropyl-3,3-difluoro-7-methyl-1,2,3,4-tetrahydro-[1,4]oxazepino[2,3-c]quinolin-6(7H)-one] | –
9 | 19.5 | Cn1c(=O)c2c(c3cc(Nc4nc(N5C[C@H](F)C[C@H](F)C5)ncc4Cl)ccc31)N[C@@H](C1CC1)C(F)(F)CO2 [Example 9s, (S)-10-((5-chloro-2-((3S,5R)-3,5-difluoropiperidin-1-yl)pyrimidin-4-yl)amino)-2-cyclopropyl-3,3-difluoro-7-methyl-1,2,3,4-tetrahydro-[1,4]oxazepino[2,3-c]quinolin-6(7H)-one] | –
10 | 2.75 | CN1CCCN(c2ncc(Cl)c(Nc3ccc4c(c3)c3c(c(=O)n4C)OCC(F)(F)[C@H](C4CC4)N3)n2)CC1 [Example 11a, (2S)-10-[[5-chloro-2-(4-methyl-1,4-diazepan-1-yl)pyrimidin-4-yl]amino]-2-cyclopropyl-3,3-difluoro-7-methyl-2,4-dihydro-1H-[1,4]oxazepino[2,3-c]quinolin-6-one] | –
11 | 2.51 | C[C@@H]1C[C@H](N)CN(c2ncc(Cl)c(Nc3ccc4c(c3)c3c(c(=O)n4C)OCC(F)(F)[C@H](C4CC4)N3)n2)C1 [Example 12b, (S)-10-((2-((3S,5R)-3-amino-5-methylpiperidin-1-yl)-5-chloropyrimidin-4-yl)amino)-2-cyclopropyl-3,3-difluoro-7-methyl-1,2,3,4-tetrahydro-[1,4]oxazepino[2,3-c]quinolin-6(7H)-one] | –
12 | 4.27 | Cn1c(=O)c2c(c3cc(Nc4nc(N5CCC[C@H](CO)C5)ncc4Cl)ccc31)N[C@@H](C1CC1)C(F)(F)CO2 [Example 9q, (S)-10-((5-chloro-2-((S)-3-(hydroxymethyl)piperidin-1-yl)pyrimidin-4-yl)amino)-2-cyclopropyl-3,3-difluoro-7-methyl-1,2,3,4-tetrahydro-[1,4]oxazepino[2,3-c]quinolin-6(7H)-one] | –
13 | 7.59 | Cn1c(=O)c2c(c3cc(Nc4nc(N5CC6CCC(C5)N6CC5CC5(F)F)ncc4Cl)ccc31)N[C@@H](C1CC1)C(F)(F)CO2 (stereo partly drawn) [Example 9za, (2S)-10-((5-chloro-2-(8-((2,2-difluorocyclopropyl)methyl)-3,8-diazabicyclo[3.2.1]octan-3-yl)pyrimidin-4-yl)amino)-2-cyclopropyl-3,3-difluoro-7-methyl-1,2,3,4-tetrahydro-[1,4]oxazepino[2,3-c]quinolin-6(7H)-one] | –

More lines, now with the values behind:

Row | Molecule | IC50 [nM] | HTRF avg pIC50
14 | C[C@@H]1C[C@H](N(C)C)CN(c2ncc(Cl)c(Nc3ccc4c(c3)c3c(c(=O)n4C)OCC(F)(F)[C@H](C4CC4)N3)n2)C1 [Example 1h, (S)-10-((5-chloro-2-((3S,5R)-3-(dimethylamino)-5-methylpiperidin-1-yl)pyrimidin-4-yl)amino)-2-cyclopropyl-3,3-difluoro-7-methyl-1,2,3,4-tetrahydro-[1,4]oxazepino[2,3-c]quinolin-6(7H)-one] | – | 8.44
15 | Cn1c(=O)c2c(c3cc(Nc4nc(N5CCC[C@@H](O)C5)ncc4Cl)ccc31)N[C@@H](C1CC1)C(F)(F)CO2 [Example 1j, (S)-10-((5-chloro-2-((R)-3-hydroxypiperidin-1-yl)pyrimidin-4-yl)amino)-2-cyclopropyl-3,3-difluoro-7-methyl-1,2,3,4-tetrahydro-[1,4]oxazepino[2,3-c]quinolin-6(7H)-one] | 2.95 | –
16 | C[C@H]1C[C@@H](F)CN(c2ncc(Cl)c(Nc3ccc4c(c3)c3c(c(=O)n4C)OCC(F)(F)[C@H](C4CC4)N3)n2)C1 [Example 12x03, (S)-10-((5-chloro-2-((3R,5S)-3-fluoro-5-methylpiperidin-1-yl)pyrimidin-4-yl)amino)-2-cyclopropyl-3,3-difluoro-7-methyl-1,2,3,4-tetrahydro-[1,4]oxazepino[2,3-c]quinolin-6(7H)-one] | 15.5 | –
17 | CC(=O)N1C2CCC1CN(c1ncc(Cl)c(Nc3ccc4c(c3)c3c(c(=O)n4C)OCC(F)(F)[C@H](C4CC4)N3)n1)C2 (single isomer, unassigned) [Example 7b] | 1.62 | –
18 | (S)-10-((5-chloro-2-((3R,5R)-3-fluoro-5-hydroxypiperidin-1-yl)pyrimidin-4-yl)amino)-2-cyclopropyl-3,3-difluoro-7-methyl-1,2,3,4-tetrahydro-[1,4]oxazepino[2,3-c]quinolin-6(7H)-one:(S)-10-((5-chloro-2-((3S,5S)-3-fluoro-5-hydroxypiperidin-1-yl)pyrimidin-4-yl)amino)-2-cyclopropyl-3,3-difluoro-7-methyl-1,2,3,4-tetrahydro-[1,4]oxazepino[2,3-c]quinolin-6(7H)-one(1:1) [Example 11g] | – | 8.28
19 | Cn1c(=O)c2c(c3cc(Nc4nc(N5CCC(F)(F)C(C(=O)N6CC(F)(F)C6)C5)ncc4Cl)ccc31)N[C@@H](C1CC1)C(F)(F)CO2 (mixture of isomers) [Example 12x19, (2S)-10-((5-chloro-2-(3-(3,3-difluoroazetidine-1-carbonyl)-4,4-difluoropiperidin-1-yl)pyrimidin-4-yl)amino)-2-cyclopropyl-3,3-difluoro-7-methyl-1,2,3,4-tetrahydro-[1,4]oxazepino[2,3-c]quinolin-6(7H)-one] | 5.89 | –
20 | CC(=O)N[C@@H]1C[C@H](C)CN(c2ncc(Cl)c(Nc3ccc4c(c3)c3c(c(=O)n4C)OCC(F)(F)[C@H](C4CC4)N3)n2)C1 [Example 1g, N-((3R,5S)-1-(5-chloro-4-(((S)-2-cyclopropyl-3,3-difluoro-7-methyl-6-oxo-1,2,3,4,6,7-hexahydro-[1,4]oxazepino[2,3-c]quinolin-10-yl)amino)pyrimidin-2-yl)-5-methylpiperidin-3-yl)acetamide] | 3.16 | –
21 | CC1CCC(C)N(c2ncc(Cl)c(Nc3ccc4c(c3)c3c(c(=O)n4C)OCC(F)(F)[C@H](C4CC4)N3)n2)C1 (stereo partly drawn) [Example 12x12, (2S)-10-((5-chloro-2-(2,5-dimethylpiperidin-1-yl)pyrimidin-4-yl)amino)-2-cyclopropyl-3,3-difluoro-7-methyl-1,2,3,4-tetrahydro-[1,4]oxazepino[2,3-c]quinolin-6(7H)-one] | 56.2 | –
